Experimental data: article PMC8472965, “BmK86-P1, a New Degradation Peptide with Desirable Thermostability and Kv1.2 Channel-Specific Activity from Traditional Chinese Scorpion Medicinal Material” (Toxins, 2021)
Positions of bridges follow the written chain, without caps; N, C: chain ends. Residues, ends and D or L forms follow the SMILES beside them.

How the values were obtained:
Format in all cases: cell-based
[1] = target: T1, hKv1.2-M3 chimeric channel (Homo sapiens, UniProt P16389, T383V/V381Y); experiment: Whole-cell patch clamp, chimeric channel hKv1.2-M3 (turret or filter region of hKv1.2 substituted by that of hKv1.1); conditions: 100 nM peptide, HEK293T, mean ± S.E., n ≥ 3, SEM
T1 construct: expressed in transfected cells; host or cells: HEK293T
From the text: The turret and filter region of potassium channels have different effects on the toxin binding for different scorpion toxins. To investigate the importance of these two regions of potassium channels in interacting with BmK86-P1, another two channel chimeras (i.e., hKv1.2-M2 and hKv1.2-M3) were constructed, in which the turret or the filter region of the hKv1.2 channel was substituted by the equivalent region of the hKv1.1 channel.
(§1) All potassium channel expression vectors were given by others or constructed by ourselves. HEK293T cells were cultured in Dulbecco’s modified Eagle medium (Gibco, Pittsburgh, PA, USA) with 10% fetal bovine serum and penicillin/streptomycin (100 units/mL) in a 5% CO2 incubator at 37 °C. Potassium channel expression vectors and pEGFP-N1 were co-transfected into HEK293T cells using TurboFect in vitro Transfection Reagent (Thermo Scientific, Waltham, MA, USA) according to the manufacturer’s instructions. The potassium currents were recorded after transfection for 1 to 3 days.
The channel currents were measured and recorded by whole-cell patch clamp technology according to previously published references. The internal patch pipette solution and the bath solution were prepared as previously described. […] The channel currents were recorded at room temperature (~25 °C) using an EPC 10 patch clamp amplifier. […]

hKv1.2-R354A = target: T2, hKv1.2-R354A (Homo sapiens, UniProt P16389, R354A); experiment: Whole-cell patch clamp, hKv1.2 channel mutant R354A; conditions: 100 nM peptide, HEK293T, mean ± S.E., n ≥ 3, SEM
T2 construct: expressed in transfected cells; host or cells: HEK293T
Description: (§2) To determine the functional sites of the hKv1.2 channel responsible for the selectivity of BmK86-P1, six hKv1.2 mutants were obtained based on sequence differences between the pore regions of the hKv1.2 and hKv1.1 channels (Figure 4A). Then, the activities of 100 nM BmK86-P1 on these six mutant channels were tested. […] The other three mutant channels (hKv1.2-D352E, hKv1.2-R354A and hKv1.2-P359S) still kept similar sensitivities toward BmK86-P1 compared with the wild-type hKv1.2 channel (Figure 4H,I,K,N).
as §1
(§3) The channel currents were measured and recorded by whole-cell patch clamp technology according to previously published references. […] The channel currents were recorded at room temperature (~25 °C) using an EPC 10 patch clamp amplifier. […]

hERG channel = target: T3, hERG channel (Homo sapiens, UniProt Q12809); conditions: 1 μM peptide; whole-cell patch clamp, HEK293T; mean ± S.E., n ≥ 3; SEM
T3 construct: expressed in transfected cells; host or cells: HEK293T
Description: (§4) To investigate the electrophysiological activities of BmK86-P1, the whole-cell patch clamp technique was applied to test the effects of BmK86-P1 on multiple potassium channels. The hKv1.1, hKv1.2, hKv1.3, hKv1.6, hKv3.2, mKv4.1, rKv4.2, rKv4.3 and hERG channels were overexpressed in HEK293T cells, then the inhibitory effects of BmK86-P1 at 1 μM on these potassium channels were measured. […] To further investigate the affinity of BmK86-P1 inhibiting the hKv1.2 channel, a dose-dependent study was performed by examining the inhibitory effects of different concentrations of BmK86-P1.
(§5) All potassium channel expression vectors were given by others or constructed by ourselves. HEK293T cells were cultured in Dulbecco’s modified Eagle medium (Gibco, Pittsburgh, PA, USA) with 10% fetal bovine serum and penicillin/streptomycin (100 units/mL) in a 5% CO2 incubator at 37 °C. […] The potassium currents were recorded after transfection for 1 to 3 days.
as §3
(§6) The ClampFit (Molecular Devices, Sunnyvale, CA, USA) and SigmaPlot software ([…], Chicago, IL, USA) were used to analyze the recorded data. […]

hKv3.2 channel = target: T4, hKv3.2 channel (Homo sapiens, UniProt Q96PR1); experiment: Whole-cell patch clamp, hKv3.2 channel overexpressed in HEK293T cells; conditions: 1 μM peptide, mean ± S.E., n ≥ 3, SEM
T4 construct: expressed in transfected cells; host or cells: HEK293T
T4 sequence (Q96PR1 1-638): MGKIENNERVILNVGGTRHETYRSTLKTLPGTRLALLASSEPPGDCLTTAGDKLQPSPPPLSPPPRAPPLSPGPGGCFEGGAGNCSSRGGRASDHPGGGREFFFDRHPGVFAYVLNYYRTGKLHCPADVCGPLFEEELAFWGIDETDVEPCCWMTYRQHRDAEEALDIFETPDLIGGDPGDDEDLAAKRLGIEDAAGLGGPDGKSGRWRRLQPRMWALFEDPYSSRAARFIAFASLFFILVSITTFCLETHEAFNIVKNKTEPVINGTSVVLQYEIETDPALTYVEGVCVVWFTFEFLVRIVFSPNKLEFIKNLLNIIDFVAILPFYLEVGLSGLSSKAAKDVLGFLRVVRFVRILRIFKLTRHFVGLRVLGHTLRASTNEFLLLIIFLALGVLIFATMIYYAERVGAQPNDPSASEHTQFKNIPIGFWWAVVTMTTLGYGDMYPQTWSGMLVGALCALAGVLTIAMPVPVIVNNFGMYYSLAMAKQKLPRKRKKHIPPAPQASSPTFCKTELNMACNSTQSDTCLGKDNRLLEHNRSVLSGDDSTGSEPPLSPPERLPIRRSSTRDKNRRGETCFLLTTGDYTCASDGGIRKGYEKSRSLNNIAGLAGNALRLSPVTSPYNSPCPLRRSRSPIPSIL
Description: as §4, §5, §3, §6

hKv1.2-D352E = target: T5, hKv1.2-D352E (Homo sapiens, UniProt P16389, D352E); experiment: Whole-cell patch clamp, hKv1.2 channel mutant D352E; conditions: 100 nM peptide, HEK293T, mean ± S.E., n ≥ 3, SEM
T5 construct: expressed in transfected cells; host or cells: HEK293T
Description: as §2, §1, §3

hKv1.2-Q357H = target: T6, hKv1.2-Q357H (Homo sapiens, UniProt P16389, Q357H); experiment: Whole-cell patch clamp, hKv1.2 channel mutant Q357H; conditions: 100 nM peptide, HEK293T, mean ± S.E., n ≥ 3, SEM
T6 construct: expressed in transfected cells; host or cells: HEK293T
Description: as §2, §1, §3

hKv1.1 channel = target: T7, hKv1.1 channel (Homo sapiens, UniProt Q09470); experiment: Whole-cell patch clamp, hKv1.1 channel overexpressed in HEK293T cells; conditions: mean ± S.E., n ≥ 3, SEM
T7 construct: expressed in transfected cells; host or cells: HEK293T
Description: as §4, §5, §3, §6

hKv1.3 channel = target: T8, hKv1.3 channel (Homo sapiens, UniProt P22001); experiment: Whole-cell patch clamp, hKv1.3 channel overexpressed in HEK293T cells; conditions: 1 μM peptide, room temperature (~25 °C), mean ± S.E., n ≥ 3, SEM
T8 construct: expressed in transfected cells; host or cells: HEK293T
Description: as §4, §5, §3, §6

T7 sequence (Q09470 whole entry): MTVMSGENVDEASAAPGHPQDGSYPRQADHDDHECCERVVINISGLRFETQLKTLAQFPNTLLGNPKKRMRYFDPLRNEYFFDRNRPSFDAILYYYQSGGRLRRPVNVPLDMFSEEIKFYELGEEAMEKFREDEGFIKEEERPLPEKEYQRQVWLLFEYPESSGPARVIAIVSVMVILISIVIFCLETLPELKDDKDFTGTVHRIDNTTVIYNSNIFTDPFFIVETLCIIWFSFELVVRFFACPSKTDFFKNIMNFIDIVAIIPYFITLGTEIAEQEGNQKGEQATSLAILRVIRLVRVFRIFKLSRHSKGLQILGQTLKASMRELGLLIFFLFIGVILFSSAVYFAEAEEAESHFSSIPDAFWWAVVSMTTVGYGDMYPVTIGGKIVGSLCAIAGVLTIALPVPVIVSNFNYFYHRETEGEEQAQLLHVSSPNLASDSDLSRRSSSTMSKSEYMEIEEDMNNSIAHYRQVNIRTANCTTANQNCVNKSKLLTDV
T6 sequence (P16389 whole entry Q357H): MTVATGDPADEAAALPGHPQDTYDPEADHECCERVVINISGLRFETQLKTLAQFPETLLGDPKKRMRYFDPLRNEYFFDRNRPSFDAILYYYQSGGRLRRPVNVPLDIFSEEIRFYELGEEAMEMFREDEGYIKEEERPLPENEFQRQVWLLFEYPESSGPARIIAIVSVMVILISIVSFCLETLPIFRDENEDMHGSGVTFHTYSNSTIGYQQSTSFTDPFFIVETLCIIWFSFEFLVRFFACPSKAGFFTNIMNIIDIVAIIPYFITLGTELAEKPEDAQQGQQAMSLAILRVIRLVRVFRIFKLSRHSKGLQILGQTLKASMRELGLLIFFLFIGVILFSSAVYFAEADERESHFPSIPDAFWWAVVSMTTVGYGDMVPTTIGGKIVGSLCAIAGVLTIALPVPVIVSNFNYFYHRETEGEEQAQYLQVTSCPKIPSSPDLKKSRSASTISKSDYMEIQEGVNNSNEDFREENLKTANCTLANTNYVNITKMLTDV
T3 sequence (Q12809 whole entry): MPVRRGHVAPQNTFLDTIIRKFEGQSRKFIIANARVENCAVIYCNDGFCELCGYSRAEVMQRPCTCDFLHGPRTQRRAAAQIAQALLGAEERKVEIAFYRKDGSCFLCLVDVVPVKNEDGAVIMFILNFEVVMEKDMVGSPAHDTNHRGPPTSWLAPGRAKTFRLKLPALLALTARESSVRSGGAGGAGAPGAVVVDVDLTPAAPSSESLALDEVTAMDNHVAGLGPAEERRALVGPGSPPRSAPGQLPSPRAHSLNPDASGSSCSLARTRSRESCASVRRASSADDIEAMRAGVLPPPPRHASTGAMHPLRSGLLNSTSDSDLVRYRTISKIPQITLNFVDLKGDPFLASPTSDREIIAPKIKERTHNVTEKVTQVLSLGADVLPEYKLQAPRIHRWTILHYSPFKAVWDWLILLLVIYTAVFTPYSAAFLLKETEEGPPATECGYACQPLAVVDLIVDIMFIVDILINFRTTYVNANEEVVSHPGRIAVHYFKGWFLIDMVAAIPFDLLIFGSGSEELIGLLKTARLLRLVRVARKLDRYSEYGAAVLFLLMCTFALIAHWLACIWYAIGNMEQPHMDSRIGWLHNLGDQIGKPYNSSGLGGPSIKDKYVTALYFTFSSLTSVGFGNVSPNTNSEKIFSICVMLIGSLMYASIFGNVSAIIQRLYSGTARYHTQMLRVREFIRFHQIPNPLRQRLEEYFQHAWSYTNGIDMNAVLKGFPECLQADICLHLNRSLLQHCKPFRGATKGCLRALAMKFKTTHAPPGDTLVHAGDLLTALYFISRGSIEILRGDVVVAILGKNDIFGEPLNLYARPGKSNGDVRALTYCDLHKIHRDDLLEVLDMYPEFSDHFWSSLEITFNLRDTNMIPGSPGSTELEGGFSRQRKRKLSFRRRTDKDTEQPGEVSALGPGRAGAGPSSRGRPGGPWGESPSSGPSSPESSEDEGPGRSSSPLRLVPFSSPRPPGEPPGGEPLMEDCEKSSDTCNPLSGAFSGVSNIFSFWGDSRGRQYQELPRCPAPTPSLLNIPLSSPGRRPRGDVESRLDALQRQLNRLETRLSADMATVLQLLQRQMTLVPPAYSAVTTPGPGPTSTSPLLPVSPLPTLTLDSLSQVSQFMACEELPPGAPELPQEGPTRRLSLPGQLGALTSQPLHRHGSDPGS
T1 sequence (P16389 whole entry V381Y/T383V): as the sequence (P16389 whole entry Q357H) above, with H357Q, V381Y, T383V counted along it
T8 sequence (P22001 whole entry): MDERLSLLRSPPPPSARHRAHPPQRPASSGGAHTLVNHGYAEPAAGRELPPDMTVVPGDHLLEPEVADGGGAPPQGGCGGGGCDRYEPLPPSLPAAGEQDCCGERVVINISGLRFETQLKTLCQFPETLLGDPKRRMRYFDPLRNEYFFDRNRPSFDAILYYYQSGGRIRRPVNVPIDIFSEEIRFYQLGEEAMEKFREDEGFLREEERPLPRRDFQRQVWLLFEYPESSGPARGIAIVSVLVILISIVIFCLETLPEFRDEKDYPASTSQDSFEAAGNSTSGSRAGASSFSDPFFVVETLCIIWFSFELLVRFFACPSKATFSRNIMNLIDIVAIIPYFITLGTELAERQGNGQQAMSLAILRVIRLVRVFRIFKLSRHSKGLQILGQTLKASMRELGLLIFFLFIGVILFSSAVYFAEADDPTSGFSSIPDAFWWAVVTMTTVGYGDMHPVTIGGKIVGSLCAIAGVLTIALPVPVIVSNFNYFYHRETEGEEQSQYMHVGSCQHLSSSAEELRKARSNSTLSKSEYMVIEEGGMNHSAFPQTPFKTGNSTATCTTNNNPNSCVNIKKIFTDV
T2 sequence (P16389 whole entry R354A): as the sequence (P16389 whole entry Q357H) above, with R354A, H357Q counted along it
T5 sequence (P16389 whole entry D352E): as the sequence (P16389 whole entry Q357H) above, with D352E, H357Q counted along it

CC[C@H](C)[C@@H]1NC(=O)[C@@H]2CSSC[C@H](NC(=O)[C@H](C)N)C(=O)N[C@@H](CO)C(=O)N[C@@H](CCCCN)C(=O)N3CCC[C@H]3C(=O)N[C@H]3CSSC[C@H](NC(=O)[C@H](CCCNC(=N)N)NC(=O)CNC(=O)[C@H](CC(N)=O)NC1=O)C(=O)N[C@@H](Cc1c[nH]cn1)C(=O)N[C@H](C(=O)N[C@@H](Cc1ccc(O)cc1)C(=O)N[C@@H](Cc1ccc(O)cc1)C(=O)O)CSSC[C@H](NC(=O)[C@H](Cc1ccc(O)cc1)NC(=O)[C@H](CCCCN)NC(=O)[C@H](CCCNC(=N)N)NC3=O)C(=O)N[C@@H]([C@@H](C)CC)C(=O)N[C@@H](CC(=O)O)C(=O)N[C@@H](CCCCN)C(=O)NCC(=O)N[C@@H](C)C(=O)N[C@@H](CCCNC(=N)N)C(=O)N[C@@H](CC(N)=O)C(=O)NCC(=O)N[C@@H](CCCCN)C(=O)N2 [BmK86-P1] (H-ACSKPCRKYCIDKGARNGKCINGRCHCYY-OH; disulfide 2-20, 6-25, 10-27 (inferred); N-terminus and C-terminus assumed)
inhibition of hKv1.2-M3 chimeric channel currents [1]: 1.5 ± 0.6% | inhibition of hKv1.2-R354A channel currents (hKv1.2-R354A): 73.3 ± 1.3% | inhibition of hERG channel currents (hERG channel): 13.3 ± 3.3% | inhibition of hKv3.2 channel currents (hKv3.2 channel): 3.8 ± 0.7% | inhibition of hKv1.2-D352E channel currents (hKv1.2-D352E): 74.8 ± 1.2% | inhibition of hKv1.2-Q357H channel currents (hKv1.2-Q357H): 37.3 ± 1.5% | inhibition of hKv1.1 channel currents (hKv1.1 channel; 100 nM peptide): 0.7 ± 0.1% | inhibition of hKv1.1 channel currents (hKv1.1 channel; 1 μM peptide, room temperature (~25 °C)): 4.4 ± 2.6% | inhibition of hKv1.3 channel currents (hKv1.3 channel): 52.1 ± 3.1%
